Values quoted from earlier work, collected in US7666392B2, “Click chemistry-derived cyclopeptide derivatives as imaging agents for integrins” (Siemens Medical Solutions USA, Inc., priority 2006, dated 2010).

Substance: c(RGDyV)
- tumor uptake in vivo (125I-labeled): receptor-specific tumor uptake in vivo
- tumor washout and excretion (in vivo): rapid tumor washout and unfavorable hepatobiliary excretion
